From article PMC6643297 (Cell metabolism, 2018)
pIC50: −log10 of the molar value.

Assays:
[1] = biological target: ACC2 (acetyl-CoA carboxylase 2) (Homo sapiens, UniProt O00763); assay: ACC2 enzyme inhibition assay; format: biochemical
[2] = biological target: ACC1 (acetyl-CoA carboxylase 1) (Homo sapiens, UniProt Q13085); assay: ACC1 enzyme inhibition assay; format: biochemical

Chain of ACC2 (acetyl-CoA carboxylase 2) (O00763 whole entry): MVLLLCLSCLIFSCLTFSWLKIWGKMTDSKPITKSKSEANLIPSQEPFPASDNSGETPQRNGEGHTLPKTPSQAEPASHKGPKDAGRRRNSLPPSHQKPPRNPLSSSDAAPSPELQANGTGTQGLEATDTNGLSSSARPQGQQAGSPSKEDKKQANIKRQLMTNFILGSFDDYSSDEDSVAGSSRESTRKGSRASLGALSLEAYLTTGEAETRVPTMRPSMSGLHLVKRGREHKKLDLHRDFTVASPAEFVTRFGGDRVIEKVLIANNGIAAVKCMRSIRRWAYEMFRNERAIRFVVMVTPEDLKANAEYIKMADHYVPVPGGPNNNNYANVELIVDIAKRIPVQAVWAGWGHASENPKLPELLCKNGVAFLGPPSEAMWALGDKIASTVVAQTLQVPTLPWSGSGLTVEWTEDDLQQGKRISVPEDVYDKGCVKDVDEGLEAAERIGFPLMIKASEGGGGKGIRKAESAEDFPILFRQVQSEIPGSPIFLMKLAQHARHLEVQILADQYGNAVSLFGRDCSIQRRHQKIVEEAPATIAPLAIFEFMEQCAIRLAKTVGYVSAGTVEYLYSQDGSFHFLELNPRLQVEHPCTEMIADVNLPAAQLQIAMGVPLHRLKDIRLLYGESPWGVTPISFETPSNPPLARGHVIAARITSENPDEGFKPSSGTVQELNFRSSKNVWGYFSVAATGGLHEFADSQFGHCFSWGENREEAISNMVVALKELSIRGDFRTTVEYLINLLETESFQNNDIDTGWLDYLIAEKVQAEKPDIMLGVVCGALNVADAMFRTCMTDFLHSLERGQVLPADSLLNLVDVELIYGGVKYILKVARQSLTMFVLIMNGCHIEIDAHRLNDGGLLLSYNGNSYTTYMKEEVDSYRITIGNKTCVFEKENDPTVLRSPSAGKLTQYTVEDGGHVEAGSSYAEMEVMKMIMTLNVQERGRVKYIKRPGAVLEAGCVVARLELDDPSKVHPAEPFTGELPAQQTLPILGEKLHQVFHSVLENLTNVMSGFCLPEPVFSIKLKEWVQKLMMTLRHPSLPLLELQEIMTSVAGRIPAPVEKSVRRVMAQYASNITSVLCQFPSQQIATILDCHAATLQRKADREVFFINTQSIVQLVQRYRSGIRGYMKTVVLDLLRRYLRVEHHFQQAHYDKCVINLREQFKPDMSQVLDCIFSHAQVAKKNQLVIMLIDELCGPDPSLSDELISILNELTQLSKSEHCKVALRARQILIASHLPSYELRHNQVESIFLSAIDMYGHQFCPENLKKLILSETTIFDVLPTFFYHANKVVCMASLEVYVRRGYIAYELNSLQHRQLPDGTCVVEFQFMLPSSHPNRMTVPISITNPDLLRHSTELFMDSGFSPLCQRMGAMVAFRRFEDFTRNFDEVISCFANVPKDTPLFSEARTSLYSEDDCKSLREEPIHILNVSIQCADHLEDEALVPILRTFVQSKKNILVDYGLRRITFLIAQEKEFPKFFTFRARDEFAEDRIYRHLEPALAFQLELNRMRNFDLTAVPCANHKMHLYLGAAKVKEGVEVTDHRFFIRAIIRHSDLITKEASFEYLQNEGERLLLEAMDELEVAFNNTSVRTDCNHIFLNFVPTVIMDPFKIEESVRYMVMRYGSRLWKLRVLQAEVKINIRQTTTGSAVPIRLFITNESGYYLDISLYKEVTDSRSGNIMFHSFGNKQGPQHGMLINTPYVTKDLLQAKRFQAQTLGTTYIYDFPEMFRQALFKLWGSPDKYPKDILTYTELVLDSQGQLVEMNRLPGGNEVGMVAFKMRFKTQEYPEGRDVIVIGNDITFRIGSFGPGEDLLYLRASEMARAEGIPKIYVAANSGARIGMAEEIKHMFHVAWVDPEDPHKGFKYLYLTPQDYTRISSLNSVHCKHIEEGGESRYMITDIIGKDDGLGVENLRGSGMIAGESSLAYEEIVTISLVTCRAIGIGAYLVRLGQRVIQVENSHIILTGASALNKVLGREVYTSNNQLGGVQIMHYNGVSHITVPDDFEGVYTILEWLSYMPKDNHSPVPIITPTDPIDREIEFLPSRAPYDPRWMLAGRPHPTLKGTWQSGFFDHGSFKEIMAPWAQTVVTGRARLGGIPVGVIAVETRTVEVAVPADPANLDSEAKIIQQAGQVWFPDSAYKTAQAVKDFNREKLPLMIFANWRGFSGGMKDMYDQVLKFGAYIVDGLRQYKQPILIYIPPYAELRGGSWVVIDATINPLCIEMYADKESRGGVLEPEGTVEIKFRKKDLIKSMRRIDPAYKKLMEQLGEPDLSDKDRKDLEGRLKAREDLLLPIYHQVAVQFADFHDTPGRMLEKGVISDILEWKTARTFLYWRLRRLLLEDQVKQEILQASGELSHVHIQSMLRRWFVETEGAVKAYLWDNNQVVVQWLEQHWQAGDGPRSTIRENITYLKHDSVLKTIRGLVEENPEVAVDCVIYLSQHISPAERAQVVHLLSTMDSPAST

## ND-654
[1]
  pIC50: 8.10
[2]
  pIC50: 8.52
